Source: US8759363B2, “Quinazoline-based T cell proliferation inhibitors” (Yissum Research Development Company of the Hebrew …, priority 2010, dated 2014)

Tests used:
TEA (stimulated) cells = experiment: MLR with resting control cells, stimulated TEA cells; type: cell-based, mouse; settings: 0.5 μM, 72 h MLR with IL-7; no inhibitor 3850
Text: (§1) The aim of this test was to determine whether 2 affects only the proliferating cells or there is a general mechanism affecting all cell numbers. For this purpose we mixed 3 cell types: […]: BALB/c, 2C and OT1; […]: CB6F1, TEA and OT2. The OT1 and OT2 are splenocytes that were isolated from OT1 and OT2 mice (Jackson Laboratories, Bar Harbor, Me.),
(§2) Thus, the ability to monitor the fate of proliferation and resting cells by FACS was enabled due to the use of the MLR described above for CD4+ and CD8+ and the addition of OT2 and OT1 splenocytes, respectively.
(§3) Proliferating cells often secrete cytokines that induce survival of neighbouring cells; since the proliferation was expected to be inhibited we added 50 ng/ml of IL-7. This concentration is sufficient to keep the cells alive, but not to induce proliferation.
(§4) The number of TEA and OT2 cells that were treated with 0.5 μM 2 was 1452 and 826, respectively, while the number of 2C and OT1 cells that were treated with 0.5 μM 21 was 3003 and 903, respectively. This is depicted as a bar-graph in FIG. 9C.

CD3+ cells = experiment: Proliferation of CD3+ cells purified from PBMC, BrdU; type: cell-based; settings: Homo sapiens, ConA-stimulated, slightly higher than, read-out: IC50 proliferation of isolated CD3+ cells
Method: Blood samples were taken from healthy donors and loaded on a Ficoll density gradient to purify the PBMC population. T cells were purified by human anti-CD3 using an autoMACS instrument (Miltenyi Biotec, Bergisch-Gladbach, Germany), according to the manufacturer's instructions. The identity of T cells was confirmed by flow cytometry, as they stained positive for CD3. Cells were stimulated with ConA (10 μg/ml), ODN2006 (0.5 μg/ml; Enzo Life Sciences), or LPS (50 μg/ml; Sigma-Aldrich, Steinheim, Germany), for 72 h in the presence of the inhibitor, and their proliferation was measured in the BrdU incorporation assay as will be later described.
Proliferation was assessed by BrdU incorporation using a colorimetric ELISA kit (Roche, Germany). Subsequent to labeling with 10 μM BrdU, DNA was denatured and the cells were incubated with anti-BrdU-POD, prior to the addition of colorimetric substrate (TMB). The reaction product was quantified by measuring absorbance at 450 nm in an ELISA plate reader (ELx800 BIO-TEK Instruments Inc.).
PBMC consist of a mixture of mononucleated cells, mostly T cells. To identify the cell type that was inhibited by 2, we first purified T cells from PBMC with an autoMACS apparatus (Miltenyi Biotec), using anti-CD3 antibodies. We were now able to compare three cell populations: total PBMC, CD3+ cells purified from PBMC, and PBMC that had been depleted of CD3+ cells. […]

[1] = test system: CD8+ (2C) and CD4+ (TEA) T cells; experiment: MLR, double-positive CD8+1B2+ (2C) or CD4+/Va2+ (TEA) effector cells by FACS; type: cell-based, mouse; settings: 72 h MLR
Text: Mice used included male and female 6- to 12-week-old CB6/F1 mice, obtained from the Roscoe B. Jackson Memorial Laboratory (The Jackson Laboratory, Bar Harbor, Me., http://www.jax.org). A breeding pair of transgenic (Tg) H-2b mice expressing the T-cell antigen receptor (TCR) 1B2 from the CD8+ clone 2C with specificity for H-2Ld was kindly provided by Janko Nikolic-Zugic (Memorial Sloan-Kettering Cancer Center, New York, http://www.mskcc.org). A breeding pair of Tg H-2b mice expressing the TCR from the CD4+ clone known as TEA with specificity for I-Ead allopeptide, cross-presented by host APC and bound to I-Ab and was kindly provided by Alexander Y. Rudensky (University of Washington, Seattle). I-Ead allopeptide corresponds to the positions 52 to 68 from the alpha-chain of I-E class II molecules and is expressed in all APCs from H-2b/I-E+ strains (CB6F1-hybrid of C57BL/6 and Balb/c). C57BL/6 mice are H-2b but I-E−, whereas BALB/c are H-2d and I-E+, and therefore their F1 hybrids are H-2b/1-E+ and able to directly present antigen.
Responder 2C splenocytes were harvested, and the cell suspensions were treated with Tris-buffered ammonium chloride to remove RBC. […] On day 3, the MLR cultures were harvested, and analyzed by FACS for CD4 or CD8 levels.
FACS analysis was performed using a modified FACScan (BD Biosciences, Mountain View, Calif.). Fluorescence data were collected during one minute. […]

OT2 (resting) cells = experiment: MLR with resting control cells, resting OT2 cells; type: cell-based, mouse; settings: 0.5 μM, 72 h MLR with IL-7; no inhibitor 1025
Text: as §1, §2, §3, §4

Compound: COc1cc(-c2nc(Nc3ccc(C)cc3)c3ccccc3n2)cc(OC)c1OC [Compound 2, N-p-tolyl-2-(3,4,5-trimethoxyphenyl)quinazolin-4-amine]
- number of TEA (stimulated) cells (TEA (stimulated) cells): 1452
- IC50 (CD3+ cells): > 100 nM
- percentage of double-positive effector cells [1]: reduced in a dose dependent manner
- number of OT2 (resting) cells (OT2 (resting) cells): 826
